Measured values from ChEMBL document CHEMBL5113385, “Natural products and synthetic analogues against HIV: A perspective to develop new potential anti-HIV drugs” (Eur J Med Chem, 2022).
≈ marks a conversion by molar mass, not a printed value.

Columns and labels:
[1] = biological target: T1, Human immunodeficiency virus type 1 reverse transcriptase (Human immunodeficiency virus 1, UniProt Q72547); test: Inhibition of HIV-1 LTR reverse transcriptase infected in human CEM cells using RNA template incubated for 1 hr by RT-PCR based cell-free assay
[2] = tested on: Human immunodeficiency virus 1; test: Antiviral activity against HIV-1 IIIB infected in human MT4 cells assessed as reduction in cytopathic effect measured after 5 days by Cell Titer Glo assay; assay type: functional, organism-based; conditions: Human immunodeficiency virus 1, IIIB, MT4, 120 h
C8166 = test: Cytotoxicity against human C8166 cells assessed as reduction in cell viability by MTT assay; assay type: functional
[3] = biological target: Human immunodeficiency virus type 1 reverse transcriptase (Human immunodeficiency virus 1) (UniProt Q72547); test: Inhibition of recombinant HIV-1 reverse transcriptase at 200 ug/ml by ELISA relative to control; conditions: dose 200.0 µg/ml
[4] = tested on: Human immunodeficiency virus 1; test: Antiviral activity against HIV-1 NL4-3 infected in human MT4 cells assessed as reduction in viral replication incubated for 48 hrs followed by addition of fresh medium containing compound measured after 2 days by ELISA; assay type: functional, organism-based; conditions: Human immunodeficiency virus 1, NL4-3, MT4, 48 h
[5] = tested on: Human immunodeficiency virus 1; test: Antiviral activity against HIV-1 assessed as viral growth inhibition; assay type: functional, organism-based
[6] = biological target: T1, Human immunodeficiency virus type 1 reverse transcriptase; test: Inhibition of HIV-1 reverse transcriptase using ABTS as substrate and RNA template primed with oligo(dT)12-18 in presence of digoxigenin/biotin-labeled nucleotides by ELISA
[7] = tested on: Human immunodeficiency virus; test: Antiviral activity against HIV infected in human PBMC assessed as inhibition of viral infection at MOI of 0.5 incubated for 48 hrs followed by removal of infected supernatant and subsequent addition of supernatant to human LC-5 cells expressing DsRed1 measured after 72 hrs by EASY-HIT assay; assay type: functional, organism-based; conditions: Human immunodeficiency virus 1, PBMC
[8] = tested on: Human immunodeficiency virus 1; test: Antiviral activity against HIV-1 MC99 harboring deltaTat/Rev infected in human 1A2 cells assessed as reduction in syncytium formation preincubated for 1 hr followed by virus infection measured after 3 days by inverted microscopy; assay type: functional, organism-based; conditions: Human immunodeficiency virus 1, MC99, 1A2
[9] = Selectivity index, ratio of IC50 for human 1A2 cells to EC50 for HIV-1 MC99 harboring deltaTat/Rev infected in human 1A2 cells; assay type: toxicity, cell-based; conditions: read-out: Ratio IC50/EC50
Influenza A virus = test: Antiviral activity against Influenza virus A/Puerto Rico/8/34 (H1N1) infected in MDCK cells assessed as reduction in viral titer preincubated for 1 hr followed by viral infection at MOI of 0.01 for 24 hrs and subsequent addition of culture medium and incubated for 48 hrs followed by addition of chicken erythrocytes measured after 40 mins by agglutination method; assay type: functional, organism-based
[10] = Inhibition of wild-type HIV-1 BH10 reverse transcriptase-associated RNase H expressed in Escherichia coli using [gamma-32P]ATP-labeled 31Trna/21P as template/primer preincubated for 5 mins followed by template/primer addition by PAGE analysis; parameters: species or system Human immunodeficiency virus 1
[11] = biological target: Human immunodeficiency virus type 1 protease (Human immunodeficiency virus 1) (UniProt Q72874); test: Inhibition of HIV-1 protease relative to control; conditions: concentration not given here
[12] = biological target: Human immunodeficiency virus type 1 reverse transcriptase (Human immunodeficiency virus 1) (UniProt Q72547); test: Displacement of [3H]TTP/polyA from HIV-1 reverse transcriptase at 200 ug/ml relative to control; conditions: dose 200.0 µg/ml

Compound `C=CCOCc1cn(C2CCON2C(=O)OCc2ccccc2)c(=O)[nH]c1=O` (stereo not given) has an IC50 [1] of 10 nM.
`COc1cc(F)c(Nc2cc(N)nc(Nc3ccc(C#N)cc3)n2)c(F)c1` gave an IC50 [2] of 2 nM.
In the case of `CC1(C)Oc2cc3oc(=O)ccc3cc2[C@@H](O)[C@@H]1O`, the CC50 (C8166) is reported as > 200000 nM.
`COc1cc(-c2oc3cc(O)cc(O)c3c(=O)c2O)ccc1O` gave an inhibition [3] of 57%.
For `CCCCC/C=C/C=C/O[C@@]12[C@@H]([C@H]3OCO[C@@]3(C(C)=O)[C@H](OC(=O)CCCCC)[C@H]1C)[C@@H]1O[C@]1(CO)[C@@H](O)[C@]1(O)C(=O)C(C)=C[C@H]12`, the IC50 [4] was 0.9 nM.
In the case of `COc1cc2cc3c(cc2oc1=O)OC(C)(C)CC3`, the CC50 (C8166) is reported as > 200000 nM.
For `CCOc1ccc(S(=O)(=O)N2CCN(c3cc4c(cc3F)c(=O)c(C(=O)O)cn4CC)CC2)cc1`, the IC50 [5] was 80 nM.
Compound `COC(=O)/C=C/c1c(-c2cccs2)[nH]c2ccccc12` has an IC50 [6] of 720 nM.
In the case of `COc1oc(C2C/C(=C/C(C)=C/c3ccc(C(F)(F)F)cc3)CO2)c(C)c(=O)c1C` (stereo not given), the IC50 [7] is reported as < 45 nM.
For `COc1cc2c(c(O)c1OC)C(=O)C[C@@H](c1cc(O)c(OC)c(O)c1)O2`, the EC50 [8] was < 8020 nM and the selectivity ratio [9] was 1.12.
`CCCCC/C=C\C=C/O[C@@]12[C@@H]([C@H]3OCO[C@@]3(C(C)=O)[C@H](OC(C)=O)[C@H]1C)[C@@H]1O[C@]1(CO)[C@@H](O)[C@]1(O)C(=O)C(C)=C[C@H]12` gave an IC50 [4] of 0.9 nM.
With `C=CC(C)(C)c1cc2cc(C[C@@H](O)C(C)(C)O)c(O)cc2oc1=O` the CC50 (C8166) was > 200000 nM.
With `Cc1cn([C@H]2C[C@H](n3cc(Cn4nnnc4CC(=O)N(C)C)nn3)[C@@H](CO)O2)c(=O)[nH]c1=O` the IC50 (Influenza A virus) was 39.6 µg/mL (≈ 86 µM).
With `C=C(CO)[C@@H]1Cc2cc3ccc(=O)oc3cc2O1` the CC50 (C8166) was > 200000 nM.
For `CC1(C)CCc2cc3cc(O)c(=O)oc3cc2O1`, the CC50 (C8166) was > 200000 nM.
In the case of `Nc1ccc(S(=O)(=O)N2CCN(C(=O)c3cc(O)c(O)c(O)c3)CC2)cc1`, the IC50 [10] is reported as 720 nM.
With `CC(=O)[C@@H]1Cc2cc3ccc(=O)oc3cc2O1` the CC50 (C8166) was > 200000 nM.
`CCCCC/C=C/C=C/O[C@@]12[C@@H]([C@H]3OCO[C@@]3(C(C)=O)[C@H](OC(=O)CCCC)[C@H]1C)[C@@H]1O[C@]1(CO)[C@@H](O)[C@]1(O)C(=O)C(C)=C[C@H]12` showed an IC50 [4] of 0.9 nM.
`COc1cc(F)c(C(=O)c2cc(N)nc(Nc3ccc(C#N)cc3)n2)c(F)c1` gave an IC50 [2] of 4.2 nM.
Compound `C=C(C)[C@@H]1CC[C@@H]2[C@]3(CC[C@]4(C)/C(=C(\C)CC/C=C(/C)C(=O)O)CC[C@@]24C)C[C@]13CCC(=O)O` has an inhibition [11] of 85%.
For `C=C(C)[C@@H]1Cc2c(cc3oc(=O)ccc3c2O)O1`, the CC50 (C8166) was > 200000 nM.
Compound `O=c1c(O)c(-c2ccc(O)c(O)c2)oc2cc(O)cc(O)c12` has an inhibition [3] of 43.4%.
In the case of `COc1cc(F)c(Oc2cc(N)nc(Nc3ccc(C#N)cc3)n2)c(F)c1`, the IC50 [2] is reported as 3 nM.
With `CC(C)=CCc1cc(/C=C/C(=O)O)cc(CC=C(C)C)c1` the inhibition [3] was 41.6%.
With `C=C(C)[C@@H]1CC[C@@H]2[C@]3(CC[C@]4(C)[C@@H]([C@H](C)CC/C=C(/C)C(=O)O)CC[C@@]24C)C[C@]13CCC(=O)O` the inhibition [11] was 89.2%.
In the case of `COc1cc([C@@H]2CC(=O)c3c(cc(OC)c(OC)c3O)O2)cc(OC)c1OC`, the EC50 [8] is reported as 172000 nM and the selectivity ratio [9] is reported as 1.12.
For `COC(=O)/C=C\c1c(-c2cccs2)[nH]c2ccccc12`, the IC50 [6] was 9.38 nM.
`O=c1cc(-c2ccc(O)cc2)oc2c([C@@H]3O[C@H](CO)[C@@H](O)[C@H](O)[C@H]3O)c(O)cc(O)c12` gave an inhibition [12] of 56.9%.
